A short description of the first series: Plasma concentration in F344/NJcl-rnu nude rat at 0.45 mg/kg after 48 hrs. Type of series: ADME, organism-based. Set-up: dose 0.45 mg/kg.
Conditions: not given
`C[C@@H](Oc1cc(-c2cnc3ccccn23)sc1C(N)=O)c1ccc(CNC(C)(C)C)cc1OC(F)F`: the concentration at 48 h was found to be 50 nM.

A further series can be described thus: Plasma concentration in F344/NJcl-rnu nude rat at 0.60 mg/kg after 48 hrs. Type of series: ADME, organism-based. Set-up: dose 0.6 mg/kg. The note with it: 0.6 mg/kg.
For `C[C@@H](Oc1cc(-c2cnc3ccccn23)sc1C(N)=O)c1ccc(CNC(C)(C)C)cc1OC(F)F`, the concentration at 48 h was 80 nM.

Another series is described as follows: Lipophilicity, Log D of the compound. Type of series: physicochemical. To be noted: octanol/water.
In turn, `C[C@@H](Oc1cc(-c2cnc3ccccn23)sc1C(N)=O)c1ccc(CNC(C)(C)C)cc1Cl` showed a logD of 2.9.

Compound `C[C@@H](Oc1cc(-c2cnc3ccccn23)sc1C(N)=O)c1ccc(CNC(C)(C)C)cc1C(F)F` came in with a logD of 2.6.

The compound `NC(=O)c1sc(-c2cnn3ccccc23)cc1OCc1ccccc1C(F)(F)F` displayed a logD of 4.8.

The compound `CCNCc1ccc([C@@H](C)Oc2cc(-c3cnc4ccccn34)sc2C(N)=O)c(Cl)c1` came in with a logD of 2.8.

In the case of `C[C@@H](Oc1cc(-c2cnc3ccccn23)sc1C(N)=O)c1ccc(CNC(C)(C)C)cc1F`, the pH-dependent lipophilicity (logD) is 2.2.

Regarding `C[C@@H](Oc1cc(-c2cnc3ccccn23)sc1C(N)=O)c1ccc(CNC(C)(C)CO)cc1Cl`, the logD stood at 2.9.

Regarding `C[C@@H](Oc1cc(-c2cnc3ccccn23)sc1C(N)=O)c1ccc(CN(C)C)cc1Cl`, the logD amounted to 2.9.

Take `C[C@@H](Oc1cc(-c2cnc3ccccn23)sc1C(N)=O)c1ccc(CN2CCN(C)CC2)cc1Cl`: the logD is 2.8.

In turn, `C[C@@H](Oc1cc(-c2cnc3ccccn23)sc1C(N)=O)c1ccc(CO)cc1Cl` gave a logD of 3.8.

For the compound `C[C@@H](Oc1cc(-c2cnc3ccccn23)sc1C(N)=O)c1ccc(CN2CCC(O)CC2)cc1Cl`, the logD was 3.3.

`NC(=O)c1sc(-c2cnc3ccccn23)cc1OCc1ccccc1C(F)(F)F` came in with a logD of 4.2.

In turn, `C[C@@H](Oc1cc(-c2cnc3ccccn23)sc1C(N)=O)c1ccccc1Cl` registered a logD of 4.8.

Regarding `CC(Oc1cc(-c2cnc3cc(CO)ccn23)sc1C(N)=O)c1ccccc1Cl` (racemic), the log distribution coefficient (logD) was 4.1.

`C[C@@H](Oc1cc(-c2cnc3ccccn23)sc1C(N)=O)c1ccc(CN2CCC(F)CC2)cc1Cl`: the pH-dependent lipophilicity (logD) amounted to 3.7.

In turn, `C[C@@H](Oc1cc(-c2cnc3ccc(CO)cn23)sc1C(N)=O)c1ccccc1Cl` registered a logD of 4.2.

Take `NC(=O)c1sc(-n2cnc3ccccc32)cc1OCc1ccccc1C(F)(F)F`: the logD was 4.6.

`CC(Oc1cc(-c2cnc3ccccn23)sc1C(N)=O)c1cc(CO)ccc1Cl` (stereo unspecified) registered a logD of 3.7.

In turn, `CNCc1ccc([C@@H](C)Oc2cc(-c3cnc4ccccn34)sc2C(N)=O)c(Cl)c1` registered a logD of 1.9.

Turning to `C[C@@H](Oc1cc(-c2cnc3ccccn23)sc1C(N)=O)c1ccc(CNCCO)cc1Cl`, the logD came out at 2.4.

`C[C@@H](Oc1cc(-c2cnc3ccccn23)sc1C(N)=O)c1ccccc1CO`: the logD amounted to 3.2.

For `NC(=O)c1sc(-c2cnc3ccccn23)cc1OCc1ccccc1Cl`, the logD was found to be 4.1.

For `C[C@@H](Oc1cc(-c2cnc3ccccn23)sc1C(N)=O)c1ccc(CN2CCC(O)C2)cc1Cl` (stereo partly specified), the pH-dependent lipophilicity (logD) worked out at 3.3.

As for `C[C@@H](Oc1cc(-c2cnc3ccccn23)sc1C(N)=O)c1ccc(CN2CCNC(=O)C2)cc1Cl`, the logD is 2.8.

Regarding `C[C@@H](Oc1cc(-c2cnc3ccccn23)sc1C(N)=O)c1ccc(CN2CCS(=O)(=O)CC2)cc1Cl`, the logD worked out at 3.2.

As for `C[C@@H](Oc1cc(-c2cnc3ccccn23)sc1C(N)=O)c1ccc(CNC(C)(C)C)cc1OC(F)F`, the logD was 2.7.

Compound `C[C@@H](Oc1cc(-c2cnc3ccccn23)sc1C(N)=O)c1ccc(CNC2CC2)cc1Cl` yielded a logD of 3.6.

Take `C[C@@H](Oc1cc(-c2cnc3ccccn23)sc1C(N)=O)c1ccc(CNCCCO)cc1Cl`: the logD was found to be 2.1.

Turning to `C[C@@H](Oc1cc(-c2cnc3ccccn23)sc1C(N)=O)c1ccc(CNC2CCCC2)cc1Cl`, the logD came to 3.5.

Regarding `CC(C)NCc1ccc([C@@H](C)Oc2cc(-c3cnc4ccccn34)sc2C(N)=O)c(Cl)c1`, the pH-dependent lipophilicity (logD) worked out at 2.3.

As usually defined, the logD is lipophilicity at a set pH, counting ionised and neutral species.

For the origin of these results see ChEMBL document CHEMBL1154027, “Imidazopyridine derivatives as potent and selective Polo-like kinase (PLK) inhibitors” (Bioorg Med Chem Lett, 2009).
